“Also recorded” adds a separate entry of the source. Like-named read-outs stand apart in the source and are kept apart here.
Tests used:
[1] = system: actively sensitized rat (anaphylactic bronchospasm); experiment: Active lung anaphylaxis in the rat (increase in intratracheal pressure after ovalbumin); type: in vivo, Sprague Dawley (printed "Spargue Dawley"); settings: for Increase in intratracheal pressure (+ΔP): 1 min before ovalbumin, mean ± S.E.M.; for ED50: Rattus norvegicus, iv; for doses needed for protective effect / protective effect against anaphylactic bronchospasm (words, conclusion): actively sensitized rat; for protective effect against anaphylactic bronchospasm (words, conclusion): theophylline 0.010-2.5 mg/kg, disodiumcromoglicate 0.1-5.0 mg/kg; for concentrations showing inhibition of the anaphylactic bronchospasm / effect on the increase of the intratracheal pressure / maximum inhibition of the anaphylactic bronchospasm: 1 minute before ovalbumin
Method: The antianaphylactic effect was tested on actively sensitized laboratory animals.
The active sensitization of the animals was achieved by injecting ovalbumin, a protein. This administration makes the animals hypersensitive to subsequent challenge of ovalbumin with bronchoconstriction as a consequence. The antianaphylactic effect of the test compounds was tested in vivo by exposing the actively sensitized animals to ovalbumin and measuring the protective effect of test substance on the intratracheal pressure.
Rats, Spargue Dawley, 250 g, were sensibilized by 1.0 mg ovalbumin (Sigma) and 200 mg Al(OH)3 gel suspended in 1.0 ml saline. This suspension was administered subcutaneously at 2 sites (0.5 ml/site) on the abdominal side. This procedure was done with the animals lightly anesthetized by Mebumal. 18-26 days later the animals were used in the provocation experiments
The animal was anesthetized by i.p. injection of Mebumal, 50 mg/kg i.p. The trachea was cannulated and the animals was ventilated by a pump (Braun). The frequency of respiration was about 80 beats/min. The intratracheal pressure was measured by a Statham pressure transducer (P23AC). The normal pressure variations were 0- cm H2 O.
To inhibit spontaneous respiration there was need for Curare 0.8 mg/kg i.v. Alongside with the respiratory measurements the heart rate and arterial blood pressure was measured by a Statham pressure transducer connected with a. carotis. The blood pressure, pulse rate and intratracheal pressure were registered by means of a Grass polygraph.
Bronochoconstriction was induced by 5HT, 4-5 injections in v. jugularis of a standard dose. After that a single dose of ovalbumin, 5 mg, was administered. Test compound was administered 1 min before the challenging dose of ovalbumin. Because of desensitization towards the antigen (ovalbumin) this could only be administered once in each animal.
Calculation of anaphylactic bronchoconstriction
The maximum increase of the intratracheal pressure caused by ovalbumin was measured and this was expressed as the percentage increase of the intratracheal pressure. Comparisons were made between a group of control animals not treated with test compound and groups of animals treated with different doses of test compound.
They were initially dissolved in 0.8 ml NaOH (0.5 M) and 9.2 ml saline. This stock solution of compound, 10 mg/ml, was diluted further with saline if necessary. […] The compound was dissolved in saline.

[2] = system: basophil leucocytes and isolated lung tissue; settings: cited from earlier work
[3] = read-out: ED 50 values (50% protection against the anaphylactic bronchospasm), i.v., extrapolated
[4] = read-out: Extrapolated intravenous dose for 50% protection (ED 50), i.v., Table VIII

## Cc1nc2c([nH]1)c(=O)n(C)c(=O)n2-c1ccccc1 [D 4026, 3,7-dihydro-1,8-dimethyl-3-phenyl-1H-purine-2,6-dione]
[1]; 0.010 mg/kg i.v.
  Increase in intratracheal pressure (+ΔP): 33 ± 6%
[1]; 0.100 mg/kg i.v.
  Increase in intratracheal pressure (+ΔP): 7 ± 2%
[1]; 0.500 mg/kg i.v.
  Increase in intratracheal pressure (+ΔP): 9 ± 5%
[1]; [3]
  ED50: < 0.1 mg/kg
[1]; [4]
  ED50: 0.016 mg/kg
[1]; i.v.
  doses needed for protective effect: 0.01 to 1.0 mg/kg
  concentrations showing inhibition of the anaphylactic bronchospasm: 0.01 to 0.10 mg/kg
  effect on the increase of the intratracheal pressure: diminished the increase of the intratracheal pressure
  maximum inhibition of the anaphylactic bronchospasm: about 87%
[1]
  protective effect against anaphylactic bronchospasm (words, conclusion): show protective effect

## Cc1nc2c([nH]1)c(=O)n(C)c(=O)n2CC(C)O (stereo not drawn) [D 4086, 3,7-dihydro-1,8-dimethyl-3-(2-hydroxypropyl)-1H-purine-2,6-dione]
[1]; 0.100 mg/kg i.v.
  Increase in intratracheal pressure (+ΔP): 26 ± 6%
[1]; 0.250 mg/kg i.v.
  Increase in intratracheal pressure (+ΔP): 14 ± 3%
[1]; 0.500 mg/kg i.v.
  Increase in intratracheal pressure (+ΔP): 2 ± 1%
[1]; [3]
  ED50: 0.1 to 0.27 mg/kg
[1]; [4]
  ED50: 0.12 mg/kg
[1]; i.v.
  doses needed for protective effect: 0.01 to 1.0 mg/kg
  effect on the increase of the intratracheal pressure: diminished the increase of the intratracheal pressure
[1]
  protective effect against anaphylactic bronchospasm (words, conclusion): show protective effect

## CCCn1c(=O)c2[nH]c(C)nc2n(CC(C)O)c1=O (stereo not drawn) [D 4122, 3,7-dihydro-3-(2-hydroxypropyl)-8-methyl-1-propyl-1H-purine-2,6-dione]
[1]; 0.010 mg/kg i.v.
  Increase in intratracheal pressure (+ΔP): 34 ± 4%
[1]; 0.100 mg/kg i.v.
  Increase in intratracheal pressure (+ΔP): 23 ± 5%
[1]; 1.00 mg/kg i.v.
  Increase in intratracheal pressure (+ΔP): 18 ± 4%
[1]; [3]
  ED50: < 0.1 mg/kg
[1]; [4]
  ED50: 0.01 mg/kg
[1]; i.v.
  doses needed for protective effect: 0.01 to 1.0 mg/kg
  concentrations showing inhibition of the anaphylactic bronchospasm: 0.01 to 1.00 mg/kg
  effect on the increase of the intratracheal pressure: diminished the increase of the intratracheal pressure
  maximum inhibition of the anaphylactic bronchospasm: 79%
[1]
  protective effect against anaphylactic bronchospasm (words, conclusion): show protective effect

## Cc1nc2c([nH]1)c(=O)n(C)c(=O)n2C1CCCC1 [D 4136, 3-cyclopentyl-3,7-dihydro-1,8-dimethyl-1H-purine-2,6-dione]
[1]; 0.025 mg/kg i.v.
  Increase in intratracheal pressure (+ΔP): 36 ± 4%
[1]; 0.100 mg/kg i.v.
  Increase in intratracheal pressure (+ΔP): 55%
[1]; 1.00 mg/kg i.v.
  Increase in intratracheal pressure (+ΔP): 27 ± 4%
[1]; [4]
  ED50: 0.13 mg/kg
[1]; i.v.
  doses needed for protective effect: 0.01 to 1.0 mg/kg
  effect on the increase of the intratracheal pressure: diminished the increase of the intratracheal pressure
[1]
  protective effect against anaphylactic bronchospasm (words, conclusion): show protective effect

## CCn1c(=O)c2[nH]c(C)nc2n(CC2CCCCC2)c1=O [D 4139, 3,7-dihydro-1-ethyl-8-methyl-3-cyclohexylmethyl-1H-purine-2,6-dione]
[1]; 0.010 mg/kg i.v.
  Increase in intratracheal pressure (+ΔP): 74 ± 22%
[1]; 0.05 mg/kg i.v.
  Increase in intratracheal pressure (+ΔP): 50 ± 26%
[1]; 0.100 mg/kg i.v.
  Increase in intratracheal pressure (+ΔP): 35 ± 9%
[1]; [3]
  ED50: < 0.1 mg/kg
[1]; [4]
  ED50: 0.04 mg/kg
[1]; i.v.
  doses needed for protective effect: 0.01 to 1.0 mg/kg
  concentrations showing inhibition of the anaphylactic bronchospasm: 0.01 to 0.10 mg/kg
  effect on the increase of the intratracheal pressure: diminished the increase of the intratracheal pressure
  maximum inhibition of the anaphylactic bronchospasm: 68%
[1]
  protective effect against anaphylactic bronchospasm (words, conclusion): show protective effect
[1]; i.v., extrapolated
  ED 50 values (50% protection against the anaphylactic bronchospasm): 0.10 to 0.27 mg/kg

## O=C(O)c1cc(=O)c2c(OCC(O)COc3cccc4oc(C(=O)O)cc(=O)c34)cccc2o1 [disodiumcromoglicate, reference compound]
[1]; 0.100 mg/kg i.v.
  Increase in intratracheal pressure (+ΔP): 46 ± 7%
[1]; 1.00 mg/kg i.v.
  Increase in intratracheal pressure (+ΔP): 22 ± 8%
[1]; 5.0 mg/kg i.v.
  Increase in intratracheal pressure (+ΔP): 46 ± 6%
[1]; i.v.
  ED 50 result in words (dose-response shape): bell shaped curves which made it impossible to calculate ED 50 values; also recorded: bell-shaped curve

## Cn1c(=O)c2[nH]cnc2n(C)c1=O [theophylline]
[2]
  inhibition of the anaphylactic release of histamine: capable of inhibiting the anaphylactic release of histamine

Source: patent US4233303A, “Xanthine derivatives” (priority 1977, dated 1980)
